One test addresses T1, CAAX prenyl protease 2 (Homo sapiens, UniProt Q9Y256).
T1 sequence (Q9Y256 whole entry): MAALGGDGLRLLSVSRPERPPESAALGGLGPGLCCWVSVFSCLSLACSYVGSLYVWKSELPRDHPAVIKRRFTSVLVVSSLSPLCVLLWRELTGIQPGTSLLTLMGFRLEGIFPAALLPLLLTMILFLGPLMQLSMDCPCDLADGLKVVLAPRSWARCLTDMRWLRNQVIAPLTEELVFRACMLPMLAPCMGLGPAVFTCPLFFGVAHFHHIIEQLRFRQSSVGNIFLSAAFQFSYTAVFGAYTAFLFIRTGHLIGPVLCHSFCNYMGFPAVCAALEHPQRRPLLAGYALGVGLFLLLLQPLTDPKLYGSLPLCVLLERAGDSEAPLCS
Put plainly: inhibition of Ras-converting CAAX protease Rce1 – biochemical, yeast membranes, quenched-peptide fluorescence, cherry-pick, dose response (AID 588849).

The target in a further test is Trypsin (Sus scrofa, UniProt P00761). The test is described as follows: trypsin protease activity blockade – biochemical, quenched peptide fluorescence, cherry-pick, selectivity assay for Rce1 protease inhibitor project, dose response (AID 488789).
Another test concerns BJ. Put plainly: growth inhibition of engineered Ras-driven BJ cells – cell-based, alamar blue fluorescence, cherrypicked samples, dose response (AID 2631).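 Note: confirmatory dose-response assay in RAS-dependent BJ fibroblasts engineered with TERT, LT and ST, with cytotoxicity read by fluorescence.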 The format is functional. To be noted: Homo sapiens. For orientation: Alamar Blue is a resazurin reagent that responds to reducing activity.
The subject of a further test is INS1. The test is described as follows: INS-1E survival protection against cytokine death – cell-based, luminescence, retest, dose response (AID 449756).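 Note: cell death triggered by IL-1 beta plus TNF-alpha plus IFN-gamma mixture; protective hits raise ATP signal compared with cytokine alone wells.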 The format is functional. Conditions: Rattus norvegicus.
In a further test the target is T2, Caspase-3 (Homo sapiens, UniProt P42574).
T2 sequence (P42574 whole entry): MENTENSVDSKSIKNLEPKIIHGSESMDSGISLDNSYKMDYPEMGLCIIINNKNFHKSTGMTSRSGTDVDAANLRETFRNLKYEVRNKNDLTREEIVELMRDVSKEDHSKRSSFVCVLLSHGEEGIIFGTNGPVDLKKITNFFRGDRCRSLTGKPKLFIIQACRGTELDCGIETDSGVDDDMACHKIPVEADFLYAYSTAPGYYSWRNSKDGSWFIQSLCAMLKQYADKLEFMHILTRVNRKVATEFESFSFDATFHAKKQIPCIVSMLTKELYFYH
The test is described as follows: SAR Analysis of small molecule inhibitors of Sentrin-specific proteases (SENPs) using a Caspase-3 Selectivity assay. [Related pubchem assays (depositor defined):AID2540, AID2599, AID434973, AID489001]. Type of test: functional.

Test [1] addresses T3, Sentrin-specific protease 8 (Homo sapiens, UniProt Q96LD8).
T3 sequence (Q96LD8 whole entry): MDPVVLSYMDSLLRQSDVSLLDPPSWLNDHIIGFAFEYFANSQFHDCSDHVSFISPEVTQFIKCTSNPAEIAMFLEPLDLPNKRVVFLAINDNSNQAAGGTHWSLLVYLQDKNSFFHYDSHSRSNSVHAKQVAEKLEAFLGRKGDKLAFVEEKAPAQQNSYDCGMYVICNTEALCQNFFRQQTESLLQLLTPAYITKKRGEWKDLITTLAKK
Put plainly: inhibition of human SENP8 cleavage activity – biochemical, luminescence, SAR follow-up (AID 504501). The format is functional.

Test [2] deals with T4, Sentrin-specific protease 7 (Homo sapiens, UniProt Q9BQF6).
T4 sequence (Q9BQF6 whole entry): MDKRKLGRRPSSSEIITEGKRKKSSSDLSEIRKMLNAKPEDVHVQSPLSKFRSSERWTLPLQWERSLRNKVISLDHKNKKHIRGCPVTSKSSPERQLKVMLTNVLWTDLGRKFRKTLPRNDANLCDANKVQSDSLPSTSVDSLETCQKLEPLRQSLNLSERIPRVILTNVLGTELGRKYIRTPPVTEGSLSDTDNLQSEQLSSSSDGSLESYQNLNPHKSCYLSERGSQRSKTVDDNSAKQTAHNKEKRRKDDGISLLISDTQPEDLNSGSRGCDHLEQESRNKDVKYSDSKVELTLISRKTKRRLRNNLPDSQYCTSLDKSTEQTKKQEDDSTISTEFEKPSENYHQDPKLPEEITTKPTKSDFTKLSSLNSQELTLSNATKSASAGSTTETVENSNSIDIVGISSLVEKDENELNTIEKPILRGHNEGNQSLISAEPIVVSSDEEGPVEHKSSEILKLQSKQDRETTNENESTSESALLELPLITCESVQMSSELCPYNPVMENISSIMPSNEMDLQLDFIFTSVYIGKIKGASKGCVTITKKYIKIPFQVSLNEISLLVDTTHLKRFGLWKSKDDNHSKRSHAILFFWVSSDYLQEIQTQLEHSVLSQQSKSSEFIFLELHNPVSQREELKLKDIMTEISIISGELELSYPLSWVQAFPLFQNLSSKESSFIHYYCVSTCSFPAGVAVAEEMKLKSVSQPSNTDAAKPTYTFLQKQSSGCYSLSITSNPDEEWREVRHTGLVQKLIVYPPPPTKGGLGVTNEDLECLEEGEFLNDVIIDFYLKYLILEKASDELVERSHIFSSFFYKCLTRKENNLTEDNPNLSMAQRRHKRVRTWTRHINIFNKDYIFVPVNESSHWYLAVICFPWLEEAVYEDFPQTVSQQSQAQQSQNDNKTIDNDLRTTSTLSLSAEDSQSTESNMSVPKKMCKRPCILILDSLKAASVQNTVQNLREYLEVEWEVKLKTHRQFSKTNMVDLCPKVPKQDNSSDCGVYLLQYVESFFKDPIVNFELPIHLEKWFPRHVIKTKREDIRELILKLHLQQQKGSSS
Put plainly: inhibition of human SENP7 cleavage activity – biochemical, luminescence, SAR follow-up (AID 504497). Type of test: functional.

Test [3] has as its target T5, Sentrin-specific protease 6 (Homo sapiens, UniProt Q9GZR1).
T5 sequence (Q9GZR1 whole entry): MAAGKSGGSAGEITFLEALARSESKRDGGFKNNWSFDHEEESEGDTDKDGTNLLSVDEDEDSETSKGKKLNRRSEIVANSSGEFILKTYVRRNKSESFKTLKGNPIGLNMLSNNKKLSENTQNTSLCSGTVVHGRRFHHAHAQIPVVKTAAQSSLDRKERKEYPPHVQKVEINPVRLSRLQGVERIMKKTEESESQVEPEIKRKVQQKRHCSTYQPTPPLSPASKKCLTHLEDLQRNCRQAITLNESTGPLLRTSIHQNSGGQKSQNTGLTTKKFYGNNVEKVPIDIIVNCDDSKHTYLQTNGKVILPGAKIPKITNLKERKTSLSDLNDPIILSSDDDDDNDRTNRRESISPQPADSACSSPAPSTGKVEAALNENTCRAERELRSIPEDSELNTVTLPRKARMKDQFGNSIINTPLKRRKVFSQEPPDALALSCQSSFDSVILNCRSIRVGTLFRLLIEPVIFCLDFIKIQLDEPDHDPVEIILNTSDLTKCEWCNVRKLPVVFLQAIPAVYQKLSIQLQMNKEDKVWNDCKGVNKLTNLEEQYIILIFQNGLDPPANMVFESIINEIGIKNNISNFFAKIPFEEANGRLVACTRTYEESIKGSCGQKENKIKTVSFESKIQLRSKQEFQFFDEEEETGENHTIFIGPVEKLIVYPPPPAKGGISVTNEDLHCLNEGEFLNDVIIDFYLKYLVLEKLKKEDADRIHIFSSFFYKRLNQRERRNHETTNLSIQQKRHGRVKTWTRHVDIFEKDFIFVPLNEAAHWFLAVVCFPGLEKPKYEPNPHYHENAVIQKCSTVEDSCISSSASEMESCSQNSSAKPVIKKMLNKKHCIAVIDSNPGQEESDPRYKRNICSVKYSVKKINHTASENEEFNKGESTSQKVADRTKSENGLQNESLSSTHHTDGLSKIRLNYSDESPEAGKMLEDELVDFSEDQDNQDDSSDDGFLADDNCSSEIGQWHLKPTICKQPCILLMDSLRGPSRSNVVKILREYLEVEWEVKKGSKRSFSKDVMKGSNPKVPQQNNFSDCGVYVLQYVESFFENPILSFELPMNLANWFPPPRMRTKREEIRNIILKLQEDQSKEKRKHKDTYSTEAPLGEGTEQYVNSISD
Put plainly: SAR Analysis of small molecule inhibitors of Sentrin-specific protease 6 (SENP6) using a Luminescent assay. [Related pubchem assays (depositor defined):AID2582, AID2599]. The format is functional.

SMILES strings stand for the structures. Active and inactive are the calls of the source.

Chain of Trypsin (P00761 whole entry): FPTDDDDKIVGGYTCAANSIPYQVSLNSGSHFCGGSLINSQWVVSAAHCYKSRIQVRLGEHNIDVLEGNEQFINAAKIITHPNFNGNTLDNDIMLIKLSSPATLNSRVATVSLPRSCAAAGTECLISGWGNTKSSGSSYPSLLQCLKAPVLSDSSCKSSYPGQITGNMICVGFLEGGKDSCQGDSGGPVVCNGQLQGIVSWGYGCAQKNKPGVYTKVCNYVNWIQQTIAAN

For orientation: AC50 means the concentration giving half of the maximal activity seen. As to `CN(C)c1ccc(/C=N/NC(=O)C(O)c2ccc(Br)cc2)cc1` (centres undefined), the AC50 is 2170 nM (active) at CAAX prenyl protease 2 and 2800 nM (active) on Trypsin.
As a reminder, the EC50 is the concentration at which the effect is half-maximal. On to `OC(c1cc(-c2ccc(Cl)cc2)nc2ccccc12)C1CCCCN1` (centres undefined), for which the EC50 in the test with BJ is > 133000 nM (inactive). Further, the AC50 in the test on INS1 is 12200 nM (active).
Broadly, the IC50 is the point on the concentration scale where inhibition reaches its midpoint. On to `CSc1ccc(/C=C/c2noc(-c3ccccc3O)n2)cc1`, for which the IC50 on Caspase-3 is 1100 nM (active); in test [1], 1300 nM (active); in test [2], 1300 nM (active); in test [3] it was 1300 nM (active).
For `Clc1ccccc1-c1nnc(/C=C/c2cccs2)o1`, the IC50 at Caspase-3 was 1300 nM (active); in test [1] it was 2060 nM (active); in test [2], 1960 nM (active); in test [3], 2010 nM (active).
Regarding `Cc1cc(C)n2cc(CSC3=NCCS3)nc2n1`, the AC50 at CAAX prenyl protease 2 was 8530 nM (active); on Trypsin, 8500 nM (active).

The record behind these values is ChEMBL document CHEMBL1201862, “PubChem BioAssay data set” (2004).
